Laboratory results from US9839614B2, “Nanoparticle and polymer formulations for thyroid hormone analogs, antagonists, and formulations and uses thereof” (NANOPHARMACEUTICALS LLC, priority 2009, dated 2017).
Values joined by “and” are separate entries in the source; they are usually repeats but may differ in a detail not shown here. Equal values may be shown once.

Key:
[1] = tested on: matrigel plug angiogenesis; assay: Mouse matrigel model of angiogenesis (plug hemoglobin); format: in vivo, mice (C57BL/6NCr)
Description: Normal male mice (C57BL/6NCr) 6-8 weeks of age and weighing ˜20 g were purchased from Taconic farm. Animals were housed 4 per cage, in controlled conditions of temperature (20-24° C.); humidity (60-70%) and 12 hrs. light/dark cycle provided with food and water ad libitum. […] Aliquots of matrigel were placed into cold polypropylene tubes to prevent the matrigel from solidifying and the angiogenesis promoter added to matrigel with or without agonist. Mice were treated daily. Matrigel was subcutaneously injected as triple injection per animal at 100 μL/animal. At day 14 post plug implant all animals were killed in CO2 chamber and matrigel plugs were collected. Plug hemoglobin content was analyzed from three implants/mice (n=6 per group) to measure angiogenesis.
The matrigel plugs dissected from the mice were carefully stripped of any remaining peritoneum. The plugs were placed into 0.5 mL tube of ddH2O and homogenized for 5-10 min. […] Absorbance was read with a Microplate Manager ELISA reader at 540 nm. […] Hemoglobin concentration is a reflection of the number of blood vessels in the plugs.

[2] = tested on: chick chorioallantoic membrane (CAM) blood vessel branching; assay: Chorioallantoic membrane (CAM) model of angiogenesis; format: in vivo; details: for ANGIOGENESIS INDEX: n = 8 per group; for effect on angiogenesis, representative illustrations (FIG. 23): in vivo
Description: In vivo neovascularization was examined by methods described previously. 9-12 Ten-day-old chick embryos were purchased from SPAFAS (Preston, Conn.) and incubated at 37° C. with 55% relative humidity. A hypodermic needle was used to make a small hole in the shell concealing the air sac, and a second hole was made on the broad side of the egg, directly over an avascular portion of the embryonic membrane that was identified by candling. A false air sac was created beneath the second hole by the application of negative pressure at the first hole, causing the CAM to separate from the shell. A window approximately 1.0 cm^2 was cut in the shell over the dropped CAM with a small-crafts grinding wheel (Dremel, division of Emerson Electric Co.), allowing direct access to the underlying CAM. […] Sterile disks of No. 1 filter paper (Whatman International) were pretreated with 3 mg/mL cortisone acetate and 1 mmol/L PTU and air dried under sterile conditions. Thyroid hormone, hormone analogs, FGF2 or control solvents, and inhibitors were then applied to the disks and the disks allowed to dry. The disks were then suspended in PBS and placed on growing CAMs. […] At 24 hours, the MAPK cascade inhibitor PD 98059 was also added to CAMs topically by means of the filter disks.
After incubation at 37° C. with 55% relative humidity for 3 days, the CAM tissue directly beneath each filter disk was resected from control and treated CAM samples. Tissues were washed 3× with PBS, placed in 35-mm Petri dishes (Nalge Nunc), and examined under an SV6 stereomicroscope (Zeiss) at X50 magnification. Digital images of CAM sections exposed to filters were collected using a 3-charge-coupled device color video camera system (Toshiba) and analyzed with Image-Pro software (Media Cybernetics). The number of vessel branch points contained in a circular region equal to the area of each filter disk were counted. One image was counted in each CAM preparation, and findings from 8 to 10 CAM preparations were analyzed for each treatment condition (thyroid hormone or analogs, FGF2, FGF2 antibody, PD 98059). In addition, each experiment was performed 3 times. The resulting angiogenesis index is the mean±SEM of new branch points.

[3] = 10 μg/matrigel plug, day 14, n = 6-7
[4] = FGF 100 ng + Tetrac or analog 10 μg/plug
[5] = FGF 100 ng + Tetrac or analog 10 μg/plug, n = 7-14
[6] = FGF (1.25 μg/ml) + Tetrac or analog at 10 μg/plug
[7] = FGF (1.25 μg/ml) + Tetrac or analog at 10 μg/plug, n = 8
[8] = T4 + antagonist, each 10 μg/matrigel plug

## CC(C)(C)OC(=O)NC(Cc1cc(I)c(Oc2cc(I)c(OCC3CO3)c(I)c2)c(I)c1)C(=O)OCC1CO1 (stereo not drawn) [T4 analog 14, Oxiran-2-ylmethyl-2-(tert-butoxycarbonylamino)-3-(4-(3,5-diiodo-4-(oxiran-2-ylmethoxy)phenoxy)-3,5-diiodophenyl)propanoate]
[1]; 10 μg/matrigel plug
  Mean stimulation of angiogenesis (%): 0 ± 17%
[1]; [3]
  Hemoglobin (mg/mL) ± SEM: 0.3 ± 0.1 mg/mL
[2]; 1 μM
  Mean % of stimulation (comparing to PBS): 56.2 ± 7.5%
[2]; 1 μM, mean ± SEM, n = 8
  Mean Branch points: 114 ± 11

## FGF2: human recombinant FGF2, standard proangiogenic agent
[1]; FGF 100 ng alone
  Hemoglobin (mg/mL) ± SEM: 2.4 ± 0.4 mg/mL
[2]; 1 uM
  ANGIOGENESIS INDEX: 155 ± 9
[2]; 1.25 μg/ml
  Branch pts ± SEM: 137.9 ± 7.5
[2]; FGF 1.25 μg/mL
  Mean % of stimulation (comparing to PBS): 78.1 ± 7.5%
  Mean Branch points: 130 ± 11
[2]; FGF2 (1 μg/mL)
  increase in angiogenesis / branch formation: 2.2 fold and 2 fold
[2]; FGF (1.25 μg/ml) alone
  Mean Branch points: 130 ± 11

## CC(C)[Si](OC(=O)Cc1cc(I)c(Oc2cc(I)c(OCC3CO3)c(I)c2)c(I)c1)(C(C)C)C(C)C (stereo not drawn)
other
  melting point: 120 °C

## CCNC(Cc1cc(I)c(Oc2cc(I)c(O)c(I)c2)c(I)c1)C(=O)O (stereo not drawn) [PRIAB12]
[2]; 0.1 μM
  Branch pts ± SEM: 121.7 ± 13.6

## CNC(Cc1cc(I)c(Oc2cc(I)c(O)c(I)c2)c(I)c1)C(=O)O (stereo not drawn) [PRIAB6]
[2]; 0.1 μM
  Branch pts ± SEM: 136.2 ± 12.4

## CNC(Cc1cc(I)c(Oc2cc(I)c(O)c(I)c2)c(I)c1)C(=O)[O-].O.O.[K+] (stereo not drawn) [T4 analog 10, Potassium 3-[4-(4-hydroxy-3,5-diiodophenoxy)-3,5-diiodophenyl]-2-(methylamino)propanoate dihydrate]
[1]; [3]
  Hemoglobin (mg/mL) ± SEM: 0.8 ± 0.2 mg/mL
[1]; 10 μg/matrigel plug, dihydrate
  Mean stimulation of angiogenesis (%): 87% and 87 ± 33%
[2]; 0.1 μM
  Mean % of stimulation (comparing to PBS): 43.8 ± 6.5%
[2]; 0.1 μM, mean ± SEM, n = 8
  Mean Branch points: 105 ± 7

## O=C(O)CCc1cc(I)c(Oc2ccc(O)cc2)c(I)c1 [DITPA, 3,5-diiodothyropropionic acid]
[2]; 0.01 uM
  ANGIOGENESIS INDEX: 133.0 ± 11.6
[2]; 0.1 uM
  ANGIOGENESIS INDEX: 167.3 ± 12.7
[2]; 0.2 mM
  ANGIOGENESIS INDEX: 117.9 ± 5.6

## CC(C)[Si](OC(=O)Cc1cc(I)c(Oc2cc(I)c(O)c(I)c2)c(I)c1)(C(C)C)C(C)C [Tetrac analog 5, Triisopropylsilyl-2-(4-(4-hydroxy-3,5-diiodophenoxy)-3,5-diiodophenyl)acetate]
[1]; [4]
  Mean inhibition of angiogenesis (%): 104 ± 14%
[1]; [5]
  Hemoglobin (mg/mL) ± SEM: 0.2 ± 0.1 mg/mL
[2]; [6]
  Mean % Inhibition: 75 ± 19%
[2]; [7]
  Mean Branch points: 87 ± 11
other
  melting point: 146 °C

## CC(C)(C)OC(=O)Cc1cc(I)c(Oc2cc(I)c(O)c(I)c2)c(I)c1 [Tetrac analog 3, tert-Butyl-2-(4-(4-hydroxy-3,5-diiodophenoxy)-3,5-diiodophenyl)acetate]
[1]; [4]
  Mean inhibition of angiogenesis (%): 95 ± 14%

## CC(C)(C)OC(=O)NC(Cc1cc(I)c(Oc2cc(I)c(OCC3CO3)c(I)c2)c(I)c1)C(=O)OCC1CO1 (stereo not drawn) (hydrate or solvate) [T4 analog 14, Oxiran-2-ylmethyl-2-(tert-butoxycarbonylamino)-3-(4-(3,5-diiodo-4-(oxiran-2-ylmethoxy)phenoxy)-3,5-diiodophenyl)propanoate]
other
  melting point: 105 °C

## CCNC(Cc1cc(I)c(Oc2cc(I)c(O)c(I)c2)c(I)c1)C(=O)O (stereo not drawn) [T4 analog 11, 2-(Ethylamino)-3-[4-(4-hydroxy-3,5-diiodophenoxy)-3,5-diiodophenyl]propanoic acid]
[2]
  effect on angiogenesis, representative illustrations (FIG. 23): proangiogenesis effects

## CC(C)(C)OC(=O)NC(Cc1cc(I)c(Oc2cc(I)c(O)c(I)c2)c(I)c1)C(=O)O (stereo not drawn) [T4 analog 7, 2-[(Tert-butoxycarbonyl)amino]-3-[4-(4-hydroxy-3,5-diiodophenoxy)-3,5-diiodophenyl]propanoic acid]
[2]; 0.1 μM, before conjugation
  Branch pts ± SEM: 173 ± 9.9

## O=C(Cc1cc(I)c(Oc2cc(I)c(O)c(I)c2)c(I)c1)NC1CCCCC1 [Tetrac analog 4, N-cyclohexyl-2-(4-(4-hydroxy-3,5-diiodophenoxy)-3,5-diiodophenyl)acetamide]
[1]; [4]
  Mean inhibition of angiogenesis (%): 104 ± 12%
[1]; [5]
  Hemoglobin (mg/mL) ± SEM: 0.2 ± 0.1 mg/mL
[2]; [6]
  Mean % Inhibition: 15 ± 8%
[2]; [7]
  Mean Branch points: 121 ± 4

## O=C(Cc1cc(I)c(Oc2cc(I)c(OCCCl)c(I)c2)c(I)c1)NC1CCCCC1 [Tetrac analog 15, 2-(4-(4-(2-chloroethoxy)-3,5-diiodophenoxy)-3,5-diiodophenyl)-N-cyclohexylacetamide]
other
  melting point: 263 °C

## CCNC(Cc1cc(I)c(Oc2cc(I)c(O)c(I)c2)c(I)c1)C(=O)OCC (stereo not drawn) [T4 analog 12, Ethyl-2-(ethylamino)-3-[4-(4-hydroxy-3,5-diiodophenoxy)-3,5-diiodophenyl]propanoate]
[1]; [8]
  Hemoglobin (mg/mL) ± SEM: 0.4 ± 0.1 mg/mL
  Mean inhibition of angiogenesis (%): 89 ± 11%
[2]; FGF (1.25 μg/ml) + 12 (0.1 μM)
  Mean Branch points: 46 ± 2
[2]; FGF (1.25 μg/ml) + 12 (0.1 μM), (inhibition)
  Mean % of stimulation (comparing to PBS): −37.9 ± 4 (inhibition) %
[2]
  effect on angiogenesis, representative illustrations (FIG. 23): anti-angiogenic

## CC(C)[Si](OC(=O)C(Cc1cc(I)c(Oc2cc(I)c(OCC3CO3)c(I)c2)c(I)c1)NC(=O)OC(C)(C)C)(C(C)C)C(C)C (stereo not drawn) (hydrate or solvate)
other
  melting point: 109 °C

## Cc1cc(OCC(=O)O)cc(C)c1Cc1ccc(O)c(C(C)C)c1 [GC-1, 3,5-dimethyl-4-(4′-hydroxy-3′-isopropylbenzyl)-phenoxy acetic acid]
[2]; 0.01 uM
  ANGIOGENESIS INDEX: 169.6 ± 11.6
[2]; 0.1 uM
  ANGIOGENESIS INDEX: 152.7 ± 9.0

## O=C(Cc1cc(I)c(Oc2cc(I)c(OCC3CO3)c(I)c2)c(I)c1)OCC1CO1 (stereo not drawn) [Tetrac analog 8, Oxiran-2-ylmethyl-2-(4-(3,5-diiodo-4-(oxiran-2-ylmethoxy)phenoxy)-3,5-diiodophenyl)acetate]
other
  melting point: 116 °C

## O=C(O)C(Cc1cc(I)c(Oc2cc(I)c(O)c(I)c2)c(I)c1)NC(c1ccccc1)(c1ccccc1)c1ccccc1 (stereo not drawn) [PRIAB2]
[2]; 0.1 μM
  Branch pts ± SEM: 136.0 ± 18.1

## CC(C)[Si](OC(=O)C(Cc1cc(I)c(Oc2cc(I)c(O)c(I)c2)c(I)c1)NC(=O)OC(C)(C)C)(C(C)C)C(C)C (stereo not drawn) [T4 analog 13, Triisopropylsilyl-2-(tert-butoxycarbonylamino)-3-(4-(4-hydroxy-3,5-diiodophenoxy)-3,5-diiodophenyl)propanoate]
[1]; 10 μg/matrigel plug
  Mean stimulation of angiogenesis (%): 0 ± 17%
[1]; [3]
  Hemoglobin (mg/mL) ± SEM: 0.3 ± 0.1 mg/mL
[2]; 1 μM, mean ± SEM, n = 8
  Mean Branch points: 76 ± 7
[2]; [6]
  Mean % Inhibition: 44 ± 13%
[2]; [7]
  Mean Branch points: 105 ± 7
[2]; Gallus gallus, topical, 1 μM, read-out: Mean % of stimulation (comparing to PBS)
  change in vivo at 1 µM: 4.1 ± 6.5%

## O=C(Cc1cc(I)c(Oc2cc(I)c(OCC3CO3)c(I)c2)c(I)c1)NC1CCCCC1 (stereo not drawn) [Tetrac analog 6, N-cyclohexyl-2-(4-(3,5-diiodo-4-(oxiran-2-ylmethoxy)phenoxy)-3,5-diiodophenyl)acetamide]
[1]; [4]
  Mean inhibition of angiogenesis (%): 80 ± 16%
[1]; [5]
  Hemoglobin (mg/mL) ± SEM: 0.7 ± 0.1 mg/mL
other
  melting point: 242 °C
